Reference: patent US8895282B2, “Use of a substance for manufacturing of a medicament for treatment of common cold” (Tanomed AB, priority 2008, dated 2014)
“And” between values parts separate entries of the source, which are not always exact repeats. Identical values can stand only once. Like-named read-outs stand apart in the source and are kept apart here.

Key:
[1] = test system: WI 38 cells
Procedure: (§1) Virus concentration=dil 2. Incubation during 30 min in heater keeping 37° C. After 30 min the effect of the hydrogen peroxide is aborted with the addition of 0.1 ml catalase solution into the vial (=1 kU/ml). • 0.7 ml 5% glucose solution+0.1 ml dil 1 of RV7 (=a7) or RV8 (=a8)+0.1 ml of the hydrogen peroxide solution (=final concentration in the vial=[…]). Incubation and abortion of the hydrogen peroxide effect similar as in a).
(§2) After the addition of catalase, samples are transferred to a 96-well plate with flat bottom according to table 3.

[2] = test system: Rhinovirus 7
Procedure: Virus: Rhinovirus 7, purchased from ATCC (VR-1117), was used as a representative for the rhinovirus group. In the assays the dilutions 10^−2 and 10^−3 were used. […] 0.3 ml of each dilution was added into the vials.
(§3) Cell culture: Human lung cell fibroblasts (WI 38, ATCC-CCL-75) was used for cytopathic effect detection. 10-fold serial dilutions had been made from the concentrated viral suspension. […] Then the media was changed to RPMI with 2% of fetal calf serum, which was preserved during the assay. The cells were incubated in CO2enriched air at 37° C. During the experiments a cell culture of 17th-18^thpassage was used.
Catalase: From Sigma-Aldrich™. A solution of 100 000 U/ml was prepared from the original solution of 10^6 U/ml.
H2O2: a 20% solution was diluted in Phosphate buffered saline (PBS) to a 0.5% and a 0.05% solution. 0.1 ml was added to the vials, which means 0.05% or 0.005% in the vials.
A solution of 200 U/ml and 600 U/ml was prepared from the original solution of 6000 U/ml.
In order to evaluate whether the effect of the hydrogen peroxide was a direct effect on the virus itself or a cytoprotective effect, we preincubated the virus with the hydrogen peroxide, before it was transferred to the wells with the cells. The WI 38 cells are also sensitive to hydrogen peroxide, and therefore it was necessary to add catalase before inoculation into the wells. […] This design would also reveal if the inhibitory effect was only a virostatic one, or if it could damage the virions irreversibly.
(§4) In table 1 the content of each of the 10 vials (Eppendorf) is listed. The vials were incubated in a heater keeping a stable temperature of 37° C. 1000 U of catalase was added after 15, 30 and 60 min of incubation. 2×50 μl from each vial was transferred to duplicate cell wells (a 96-well plate).

[3] = test system: Rhinovirus 8; conditions: 50 μl b8: RV8 preincubated 30 min with 0.01% hydrogen peroxide, then catalase
Procedure: as §1
(§5) Altogether 4 vials (Eppendorff): a7, a8, b7 and b8.
as §2

[4] = test system: Rhinovirus 7; conditions: b7: RV7 preincubated 30 min with 0.01% hydrogen peroxide, then catalase
Procedure: as §1, §5, §2

[5] = test system: WI 38 cells; remark: listed apart in the source
Procedure: as §3, §4

[6] = 0.005% H2O2, RV 7 dil 10^−2, preincubation 15 min
[7] = 0.005% H2O2, RV 7 dil 10^−2, preincubation 30 min
[8] = 0.005% H2O2, RV 7 dil 10^−2, preincubation 60 min
[9] = 0.005% H2O2, RV 7 dil 10^−3, preincubation 15 min
[10] = 0.005% H2O2, RV 7 dil 10^−3, preincubation 30 min
[11] = 0.005% H2O2, RV 7 dil 10^−3, preincubation 60 min
[12] = 0.05% H2O2, RV 7 dil 10^−2, preincubation 15 min
[13] = 0.05% H2O2, RV 7 dil 10^−2, preincubation 30 min
[14] = 0.05% H2O2, RV 7 dil 10^−2, preincubation 60 min
[15] = 0.05% H2O2, RV 7 dil 10^−3, preincubation 15 min
[16] = 0.05% H2O2, RV 7 dil 10^−3, preincubation 30 min
[17] = 0.05% H2O2, RV 7 dil 10^−3, preincubation 60 min

OO [H2O2, hydrogen peroxide]
Effect on WI 38 cells after 2 days [1]: Tox | Effect on WI 38 cells after 10 days [1]: tox | Inactivation of RV 7 ([2]; 0.005% (2 mM) hydrogen peroxide, higher concentration of RV 7): not able to inactivate | Day 3 (cytopathic effect of RV 7 on WI 38 cells) [2, 6]: + | Day 5 (cytopathic effect of RV 7 on WI 38 cells) [2, 6]: ++ | Day 7 (cytopathic effect of RV 7 on WI 38 cells) [2, 6]: ++ | Day 3 (cytopathic effect of RV 7 on WI 38 cells) [2, 7]: + | Day 5 (cytopathic effect of RV 7 on WI 38 cells) [2, 7]: + | Day 7 (cytopathic effect of RV 7 on WI 38 cells) [2, 7]: ++ | Day 3 (cytopathic effect of RV 7 on WI 38 cells) [2, 8]: + | Day 5 (cytopathic effect of RV 7 on WI 38 cells) [2, 8]: + | Day 7 (cytopathic effect of RV 7 on WI 38 cells) [2, 8]: + | Day 3 (cytopathic effect of RV 7 on WI 38 cells) [2, 9]: − | Day 5 (cytopathic effect of RV 7 on WI 38 cells) [2, 9]: + | Day 7 (cytopathic effect of RV 7 on WI 38 cells) [2, 9]: + | Day 3 (cytopathic effect of RV 7 on WI 38 cells) [2, 10]: − | Day 5 (cytopathic effect of RV 7 on WI 38 cells) [2, 10]: − | Day 7 (cytopathic effect of RV 7 on WI 38 cells) [2, 10]: − | Day 3 (cytopathic effect of RV 7 on WI 38 cells) [2, 11]: − | Day 5 (cytopathic effect of RV 7 on WI 38 cells) [2, 11]: − | Day 7 (cytopathic effect of RV 7 on WI 38 cells) [2, 11]: − | Inactivation of RV 7 ([2]; 0.005% hydrogen peroxide, 60 min of incubation, RV 7 10^−3 dilution): able to inactivate | Inactivation of RV 7 ([2]; 0.05% (20 mM) H2O2, all RV 7 concentrations, already after 15 min of incubation): able to inactivate | Day 3 (cytopathic effect of RV 7 on WI 38 cells) [2, 12]: − | Day 5 (cytopathic effect of RV 7 on WI 38 cells) [2, 12]: − | Day 7 (cytopathic effect of RV 7 on WI 38 cells) [2, 12]: − | Day 3 (cytopathic effect of RV 7 on WI 38 cells) [2, 13]: − | Day 5 (cytopathic effect of RV 7 on WI 38 cells) [2, 13]: − | Day 7 (cytopathic effect of RV 7 on WI 38 cells) [2, 13]: − | Day 3 (cytopathic effect of RV 7 on WI 38 cells) [2, 14]: − | Day 5 (cytopathic effect of RV 7 on WI 38 cells) [2, 14]: − | Day 7 (cytopathic effect of RV 7 on WI 38 cells) [2, 14]: − | Day 3 (cytopathic effect of RV 7 on WI 38 cells) [2, 15]: − | Day 5 (cytopathic effect of RV 7 on WI 38 cells) [2, 15]: − | Day 7 (cytopathic effect of RV 7 on WI 38 cells) [2, 15]: − | Day 3 (cytopathic effect of RV 7 on WI 38 cells) [2, 16]: − | Day 5 (cytopathic effect of RV 7 on WI 38 cells) [2, 16]: − | Day 7 (cytopathic effect of RV 7 on WI 38 cells) [2, 16]: − | Day 3 (cytopathic effect of RV 7 on WI 38 cells) [2, 17]: − | Day 5 (cytopathic effect of RV 7 on WI 38 cells) [2, 17]: − | Day 7 (cytopathic effect of RV 7 on WI 38 cells) [2, 17]: − | Reversibility of the inactivation of RV 7 ([2]; Glucose Oxidase or 0.05% hydrogen peroxide solution, 7 days of incubation, no sign of recovery): irreversible | Infection of WI 38 cells after 2 days of inoculation [3]: 1+ | Infection of WI 38 cells after 10 days of inoculation [3]: 3+ | Infection of WI 38 cells after 2 days of inoculation [4]: 1+ | Infection of WI 38 cells after 10 days of inoculation [4]: 1+ and 2+ | Day 3 (toxic effect on WI 38 cells, control) [5]: TOX | Day 5 (toxic effect on WI 38 cells, control) [5]: TOX | Day 7 (toxic effect on WI 38 cells, control) [5]: TOX | Toxic effect on WI 38 cells [5]: severe toxic effect
